Like-named read-outs stand apart in the source and are kept apart here.
Key:
[1] = biological target: PRMT3 (Homo sapiens, UniProt O60678); experiment: PRMT3 biochemical assay
[2] = tested on: 31 other lysine methyltransferases, arginine methyltransferases, and DNA and RNA methyltransferases; experiment: Methyltransferase selectivity assays; type: biochemical; settings: compound concentrations of 1, 5, and 20 μM
[3] = tested on: 55 protein targets (47 GPCRs, five ion channels, and three transporters); experiment: CEREP selectivity panel; type: binding; settings: at 10 μM
[4] = biological target: human Flag-tagged PRMT3 (Homo sapiens, UniProt O60678); experiment: Cellular PRMT3 assay; type: cell-based
human Flag-tagged PRMT3, sequence (O60678 whole entry): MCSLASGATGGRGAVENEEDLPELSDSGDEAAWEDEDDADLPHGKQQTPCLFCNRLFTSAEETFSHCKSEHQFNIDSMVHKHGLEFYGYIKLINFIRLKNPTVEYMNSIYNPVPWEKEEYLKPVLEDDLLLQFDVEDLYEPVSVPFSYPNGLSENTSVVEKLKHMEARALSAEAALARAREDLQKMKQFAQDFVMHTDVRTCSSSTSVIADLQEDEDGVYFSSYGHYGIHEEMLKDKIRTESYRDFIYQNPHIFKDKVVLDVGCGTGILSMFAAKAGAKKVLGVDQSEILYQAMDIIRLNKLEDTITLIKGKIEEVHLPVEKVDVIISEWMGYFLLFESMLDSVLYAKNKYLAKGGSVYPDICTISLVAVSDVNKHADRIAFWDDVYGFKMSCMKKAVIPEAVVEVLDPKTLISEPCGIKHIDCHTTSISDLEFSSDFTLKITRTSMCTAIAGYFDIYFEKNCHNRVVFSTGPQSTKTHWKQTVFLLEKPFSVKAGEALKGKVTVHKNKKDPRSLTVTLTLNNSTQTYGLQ

PRMT3, sequence (O60678 whole entry): as above

selectivity for PRMT3 over 31 other methyltransferases (in words) [2] | SMILES | % of inhibition (off-target activities) [3] [%] | other results
– | CN1CCN(C(=O)CNC(=O)Nc2ccc3cnccc3c2)CC1 [Compound 18, 1-(Isoquinolin-6-yl)-3-(2-(4-methylpiperazin-1-yl)-2-oxoethyl)urea] | – | PRMT3 inhibitory activity (in words) ([1]; PRMT3 biochemical assay): loss of the inhibitory activity
– | CON(C)C(=O)CNC(=O)Nc1ccc2cnccc2c1 [Compound 22, 2-(3-(Isoquinolin-6-yl)ureido)-N-methoxy-N-methylacetamide] | – | fold less potent than 5 ([1]; PRMT3 IC50 relative to compound 5): around 6 fold
highly selective for PRMT3 | O=C(NCC(=O)N1CC(F)(F)C(F)(F)C1)Nc1ccc2cnccc2c1 [Compound 29, 1-(Isoquinolin-6-yl)-3-(2-oxo-2-(3,3,4,4-tetrafluoropyrrolidin-1-yl)ethyl)urea] | < 50 | effect on H4R3me2a levels (in words) ([4]; 1 μM compound, compared with catalytically dead PRMT3 mutant E335Q): matched with that of the catalytically dead PRMT3 mutant E335Q
– | CC1CCC(C)N1C(=O)CNC(=O)Nc1ccc2cnccc2c1 (stereo not drawn) [Compound 30, 1-(2-(2,5-Dimethylpyrrolidin-1-yl)-2-oxoethyl)-3-(isoquinolin-6-yl)urea] | < 50 | –
highly selective for PRMT3 | O=C(NCC(=O)N1CCCC1)Nc1cc2ccncc2cc1F [Compound 36, 1-(7-Fluoroisoquinolin-6-yl)-3-(2-oxo-2-(pyrrolidin-1-yl)ethyl)urea] | < 50 | effect on H4R3me2a levels (in words) [4]: matched with that of the catalytically dead PRMT3 mutant E335Q
